Experimental data: patent US11123295B2, “Encholeated antifungal compounds for central nervous system delivery and treatment of Cryptococcus infections” (priority 2016, dated 2021)
Several values for one entry are separate records, joined by “and”; a condition that tells them apart may be missing. Identical values can stand only once.

Legend:
Assay type in all cases: in vivo
C. neoformans strain H99 [1] = assay: Trial 3: survival of C. neoformans-infected mice
Experimental: (§1) Animals were dosed once or twice daily as stated in Table 3 following daily body weight measurements. 5 mice were used per treatment group and a group of 5 infected, untreated mice was used as a control. […] Fluconazole, where indicated, was dosed either alone or in combination at 25 mg/kg/day in two doses by oral gavage. Agent administration began 72 hours following infection and continued once daily for 28 consecutive days.
Survival and brain studies for each of the three trials were used to determine antifungal efficacy. Mortality was recorded throughout each of the three trials. The animals were necropsied at death and the brain was removed aseptically, weighed, and homogenized in 1 milliliter sterile water. The microbiological response to antifungal treatment was evaluated by concentration (in CFU per gram) of C. neoformans in brain tissue. Serial dilutions using sterile PBS of homogenized brain were plated in duplicate onto YPD agar plates. Culture plates were incubated at 37° C. for 48 hours, after which the CFU were counted and the number of CFU per gram of brain tissue was calculated. The method was sensitive for detection of >10 CFU/g. The culture-negative plates were counted as having 0 CFU/g.

C. neoformans strain H99 [2] = assay: Trial 2: survival of C. neoformans-infected mice; conditions: oral 250 mg/kg/day in drinking water
Experimental: Mice were inoculated with C. neoformans, strain H99/ATCC 208821, (American Type Culture Collection, Rockville, Md.), which was prepared as follows. Cells from a C. neoformans suspension were streaked onto yeast extract peptone dextrose (YPD) agar plates, which were then incubated at 37° C. for 48 hours. A well-separated colony was resuspended in 25 milliliters YPD broth containing chloramphenicol and incubated in a flask on a shaking incubator at 37° C. overnight. The cells were recovered by centrifugation at 4,000 rpm for 5 minutes and washed two times in phosphate-buffered saline (PBS) by resuspension and centrifugation. Challenge organisms were quantified by hemocytometry and were diluted with PBS to a final concentration of 10^5 organisms per milliliter. The viable count was confirmed by serially diluting the C. neoformans suspension and plating the inoculum onto YPD agar plates. […]
Survival and brain studies for each of the three trials were used to determine antifungal efficacy. Mortality was recorded throughout each of the three trials. […] The microbiological response to antifungal treatment was evaluated by concentration (in CFU per gram) of C. neoformans in brain tissue. […] Culture plates were incubated at 37° C. for 48 hours, after which the CFU were counted and the number of CFU per gram of brain tissue was calculated. […] The culture-negative plates were counted as having 0 CFU/g. […]

C. neoformans strain H99 [3] = assay: Trial 3: CFU per gram of brain tissue at death; conditions: PO BID 25 mg/kg/day, individual mice 1-5
Experimental: as §1
Survival and brain studies for each of the three trials were used to determine antifungal efficacy. Mortality was recorded throughout each of the three trials. The animals were necropsied at death and the brain was removed aseptically, weighed, and homogenized in 1 milliliter sterile water. The microbiological response to antifungal treatment was evaluated by concentration (in CFU per gram) of C. neoformans in brain tissue. Serial dilutions using sterile PBS of homogenized brain were plated in duplicate onto YPD agar plates. Culture plates were incubated at 37° C. for 48 hours, after which the CFU were counted and the number of CFU per gram of brain tissue was calculated. The method was sensitive for detection of >10 CFU/g. The culture-negative plates were counted as having 0 CFU/g. […]

Compound	Median survival (C. neoformans strain H99 [1]; oral 250 mg/kg/day in water)	Median survival (C. neoformans strain H99 [2])	Median survival (C. neoformans strain H99 [1]; PO BID 25 mg/kg/day)	Number of CFU/g of Brain (C. neoformans strain H99 [3])
Nc1[nH]c(=O)ncc1F [5-Flucytosine]	47 days	34 days	–	–
OC(Cn1cncn1)(Cn1cncn1)c1ccc(F)cc1F [Fluconazole]	–	–	53 days	4,200,000 CFU/g and 4,300,000 CFU/g and 3,900,000 CFU/g and 6,800,000 CFU/g and 11,300,000 CFU/g
